Test results published in PMC3045849 (Bioorganic & medicinal chemistry letters, 2009).
Non-standard residues stand in square brackets, D forms with d. Residues, ends and D or L forms follow the SMILES beside them. *: point of attachment. Asu = N[C@@H](CCCCCC(=O)O)C(=O)O; NH(2-NH2-phenyl) = Nc1ccccc1N*

How the values were obtained:
[1] = test system: human lymphoblastoid cell line (GM15850); assay: Acetylation levels of endogenous histone H3 by western blot; assay type: cell-based; conditions: 20 µM, 48 h incubation, GM15850 cells
recombinant human HDAC1 = recombinant human HDAC1 (Homo sapiens, UniProt Q13547); assay: Inhibition of recombinant HDAC1; assay type: biochemical
recombinant human HDAC3 = recombinant human HDAC3 (Homo sapiens, UniProt O15379); assay: Inhibition of recombinant HDAC3; assay type: biochemical
recombinant human HDAC3, sequence (O15379 whole entry): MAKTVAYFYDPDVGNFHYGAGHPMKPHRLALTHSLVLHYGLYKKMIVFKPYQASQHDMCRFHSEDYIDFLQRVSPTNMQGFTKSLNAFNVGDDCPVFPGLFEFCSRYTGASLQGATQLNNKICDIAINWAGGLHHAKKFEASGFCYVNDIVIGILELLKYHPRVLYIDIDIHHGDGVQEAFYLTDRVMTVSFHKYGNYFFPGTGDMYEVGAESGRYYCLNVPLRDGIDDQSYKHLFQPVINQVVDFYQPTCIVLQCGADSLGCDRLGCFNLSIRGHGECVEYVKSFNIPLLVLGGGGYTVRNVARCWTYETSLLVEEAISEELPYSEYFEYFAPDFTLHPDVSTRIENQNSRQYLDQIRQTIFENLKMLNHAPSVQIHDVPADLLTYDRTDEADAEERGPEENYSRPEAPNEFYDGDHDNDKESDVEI
recombinant human HDAC3, sequence (Q9Y618 395-489 partner limits assumed): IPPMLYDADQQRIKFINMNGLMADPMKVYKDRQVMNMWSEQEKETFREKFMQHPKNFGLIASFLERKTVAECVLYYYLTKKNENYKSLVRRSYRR

recombinant human HDAC1, sequence (Q13547 whole entry): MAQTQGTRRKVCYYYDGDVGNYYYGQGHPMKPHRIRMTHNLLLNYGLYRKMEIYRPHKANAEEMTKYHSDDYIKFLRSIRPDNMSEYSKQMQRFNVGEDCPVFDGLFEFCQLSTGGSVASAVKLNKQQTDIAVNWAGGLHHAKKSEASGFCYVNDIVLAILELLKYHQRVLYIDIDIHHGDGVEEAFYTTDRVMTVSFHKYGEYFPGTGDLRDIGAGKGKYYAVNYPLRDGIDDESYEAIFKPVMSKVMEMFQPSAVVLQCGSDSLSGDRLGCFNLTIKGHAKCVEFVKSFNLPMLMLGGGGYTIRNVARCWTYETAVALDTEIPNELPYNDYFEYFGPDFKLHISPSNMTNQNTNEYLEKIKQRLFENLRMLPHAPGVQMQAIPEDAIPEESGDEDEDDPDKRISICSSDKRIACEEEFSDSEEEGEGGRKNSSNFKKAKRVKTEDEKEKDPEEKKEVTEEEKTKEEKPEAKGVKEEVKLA

Structure (SMILES): Cc1ccc(C(=O)NCC(=O)NCCC(=O)Nc2ccccc2N)cc1 [compound 15]
- effect on acetylation of endogenous histone H3 [1]: relatively strong effect

Structure (SMILES): N=C(N)NCCC[C@H](N)C(=O)NCC(=O)N[C@@H](CCCCCC(=O)Nc1ccccc1N)C(=O)NCC(=O)O [compound 13] (H-RG[Asu](NH(2-NH2-phenyl))G-OH; N-terminus and C-terminus assumed)
- IC50 (recombinant human HDAC1): 532 µM
- IC50 (recombinant human HDAC3): 69.3 µM
- effect on acetylation of endogenous histone H3 [1]: no effect

Structure (SMILES): Cc1ccc(C(=O)N[C@@H](CCCNC(=N)N)C(=O)NCCC(=O)Nc2ccccc2N)cc1 [compound 16]
- effect on acetylation of endogenous histone H3 [1]: no such effect

Structure (SMILES): N=C(N)NCCC[C@H](N)C(=O)NCC(=O)N[C@@H](CCCCCC(=O)Nc1ccccc1N)C(=O)Nc1ccccc1N [compound 10]
- effect on acetylation of endogenous histone H3 [1]: relatively stronger effects
